Drawing on ChEMBL document CHEMBL4823319, “Design, synthesis, and biological evaluation of potent 1,2,3,4-tetrahydroisoquinoline derivatives as anticancer agents targeting NF-κB signaling pathway” (Bioorg Med Chem, 2021), this text covers GI50, inhibition and IC50 for 35 compounds.

pIC50: −log10 of the molar value. Calls of active or inactive are those of the source. The calls are words filed in the database; no cut-off is given here.

Assay [1] relates to ACHN. The assay is described as follows: Anticancer activity against human […] cells assessed as growth inhibition incubated for 48 hrs by sulforhodamine B method. It counts as functional. Background: Sulforhodamine B stains cellular protein and so reports cell mass.
The test system of assay [2] is NCI-H23. As to the kind of experiment: Anticancer activity against human NCI-H23 cells assessed as growth inhibition incubated for 48 hrs by sulforhodamine B method. It counts as functional.
In assay [3] the test system is HCT-15. As to the kind of experiment: Anticancer activity against human HCT-15 cells assessed as growth inhibition incubated for 48 hrs by sulforhodamine B method. It is filed as functional.
In assay [4] the test system is MDA-MB-231. As to the kind of experiment: Anticancer activity against human MDA-MB-231 cells assessed as growth inhibition incubated for 48 hrs by sulforhodamine B method. It counts as functional.
In assay [5] the test system is PC-3. The assay is described as follows: Anticancer activity against human PC-3 cells assessed as growth inhibition incubated for 48 hrs by sulforhodamine B method. It is filed as functional.
The subject of assay [6] is NUGC-3. The assay is described as follows: Anticancer activity against human […] cells assessed as growth inhibition incubated for 48 hrs by sulforhodamine B method. It is filed as functional.
Assay [7] has as its system MDA-MB-231. As to the kind of experiment: Inhibition of NF-kappaB in human MDA-MB-231 cells assessed as reduction in LPS-induced NF-kappaB nuclear translocation at 10 uM treated with LPS for 24 hrs by Western blotting analysis. It is filed as cell-based.
Assay [8] relates to MDA-MB-231. The assay is described as follows: Inhibition of NF-kappaB in human MDA-MB-231 cells assessed as reduction in LPS-induced NF-kappaB nuclear translocation at 10 uM treated with LPS for 24 hrs by immunocytochemical analysis. It is filed as cell-based.
Assay [9] can be described thus: Inhibition of NF-kappaB transcriptional activity in mouse RAW264.7 cells harbouring NF-kappaB-SEAP-NPT reporter plasmid assessed as reduction in LPS-induced SEAP expression incubated for 16 hr with LPS. It is filed as cell-based.

`COc1cccc2c1C(=O)c1c(O)c3c(c(O)c1C2=O)C[C@@](O)(C(=O)CO)C[C@@H]3O[C@H]1C[C@H](N)[C@H](O)[C@H](C)O1` [DOXORUBICIN]: the GI50 (commonly the concentration at which growth is held to half of that of the control) in [1] amounted to 0.088 µM; in [2] it was 0.072 µM; in assay [3], 0.076 µM; in assay [4] it was 0.086 µM; in [5], 0.09 µM.
For the compound `O=C(Nc1cccc(C(F)(F)F)c1)c1nccc2ccccc12`, the GI50 in [6] was more than 10 µM.
The same measure, in the same setting: the value for `O=C(Nc1ccc(Cl)cc1)c1nccc2ccccc12` was more than 10 µM; that for `O=C(Nc1ccccc1C(F)(F)F)C1NCCc2ccccc21` (stereo unspecified) was more than 10 µM; that for `O=C(Nc1cccc(C(F)(F)F)c1)C1NCCc2ccccc21` (stereo unspecified) was more than 10 µM.
Regarding `O=C(Nc1cccc(O)c1)C1c2ccccc2CCN1C(=O)c1ccc(Cl)cc1` (stereo unspecified), the GI50 in assay [6] is more than 10 µM.
For the compound `COc1cccc(NC(=O)C2c3ccccc3CCN2C(=O)c2ccc(Cl)cc2)c1` (stereo unspecified), the GI50 is 2.14 µM in assay [6]; 2.96 µM in [1]; 2.42 µM in [2]; 3.62 µM in assay [3]; 3.21 µM in assay [4]; 2.89 µM in [5].
Turning to `COc1ccc(NC(=O)C2c3ccccc3CCN2C(=O)c2ccc(Cl)cc2)cc1` (stereo unspecified), the GI50 is 3.63 µM in assay [6]; 3.67 µM in [1]; 4.34 µM in assay [2]; 6.08 µM in assay [3]; 4.9 µM in assay [4]; 3.48 µM in assay [5].
Consider `O=C(Nc1cc(C(F)(F)F)cc(C(F)(F)F)c1)C1c2ccccc2CCN1C(=O)c1ccc(Cl)cc1` (stereo unspecified), for which the GI50 worked out at 2.83 µM in [6]; 2.65 µM in assay [1]; 2.02 µM in assay [2]; 3.52 µM in [3]; 2.71 µM in assay [4]; 2.56 µM in assay [5].
Take `O=C(Nc1ccccc1O)c1nccc2ccccc12`: the GI50 in assay [6] is more than 10 µM.
Take `COc1ccccc1NC(=O)C1c2ccccc2CCN1C(=O)c1ccc(Cl)cc1` (stereo unspecified): the GI50 was 1.59 µM in [6]; 1.98 µM in [1]; 1.94 µM in assay [2]; 1.74 µM in [3]; 2.28 µM in assay [4]; 2.01 µM in [5]. Also, in assay [7], the inhibition entry was “Dose-Dependent Effect”. Moreover, in assay [8], the inhibition entry was “Active”.
For `COc1cc2c(cc1O)CCC(C(=O)Nc1ccccc1)O2` (stereo unspecified), in assay [9], the pIC50 (commonly the IC50 on a negative log10 scale, so that one unit is a factor of ten) is 4.39.
On to `O=C(Nc1cc(C(F)(F)F)cc(C(F)(F)F)c1)c1nccc2ccccc12`, for which the GI50 in [6] is more than 10 µM.
Consider `O=C(Nc1cccc(C(F)(F)F)c1)C1c2ccccc2CCN1C(=O)c1ccc(Cl)cc1` (stereo unspecified), for which the GI50 in assay [6] was more than 10 µM.
As for `O=C(Nc1cccc(Cl)c1)c1nccc2ccccc12`, the 50% growth inhibitory concentration (GI50) in [6] is more than 10 µM.
`COc1ccccc1NC(=O)C1NCCc2ccccc21` (stereo unspecified): in assay [6], the GI50 was more than 10 µM.
Turning to `COc1cccc(NC(=O)c2nccc3ccccc23)c1`, the GI50 in assay [6] was more than 10 µM.
For `O=C(Nc1ccccc1C(F)(F)F)c1nccc2ccccc12`, in assay [6], the GI50 is more than 10 µM.
The same measure, in the same setting: the figure for `O=C(Nc1ccccc1O)C1c2ccccc2CCN1C(=O)c1ccc(Cl)cc1` (stereo unspecified) is more than 10 µM.
In the case of `O=C(Nc1ccc(C(F)(F)F)cc1)C1c2ccccc2CCN1C(=O)c1ccc(Cl)cc1` (stereo unspecified), the GI50 is 4.2 µM in assay [6]; 3.47 µM in assay [1]; 3.34 µM in assay [2]; 5.11 µM in assay [3]; 4.35 µM in [4]; 4.49 µM in assay [5].
`O=C(Nc1ccc(C(F)(F)F)cc1)c1nccc2ccccc12`: in assay [6], the GI50 was more than 10 µM.
The same measure, in the same setting: the figure for `COc1ccc(NC(=O)c2nccc3ccccc23)cc1` is more than 10 µM; for `O=C(Nc1cccc(O)c1)C1NCCc2ccccc21` (stereo unspecified) it is more than 10 µM; for `COc1ccc(NC(=O)C2NCCc3ccccc32)cc1` (stereo unspecified) it is more than 10 µM.
For `O=C(Nc1ccc(O)cc1)C1NCCc2ccccc21` (stereo unspecified), the GI50 amounted to 4.37 µM in assay [6]; 5.32 µM in assay [1]; 3.39 µM in [2]; 5.73 µM in assay [3]; 5.05 µM in assay [4]; 4.25 µM in assay [5].
On to `O=C(Nc1ccc(O)cc1)C1c2ccccc2CCN1C(=O)c1ccc(Cl)cc1` (stereo unspecified), for which the 50% growth inhibitory concentration (GI50) in assay [6] is more than 10 µM.
Regarding `COc1ccccc1NC(=O)c1nccc2ccccc12`, the GI50 in [6] was more than 10 µM.
With `O=C(Nc1cc(C(F)(F)F)cc(C(F)(F)F)c1)C1NCCc2ccccc21` (stereo unspecified), in assay [6], the GI50 was more than 10 µM.
On the same count and under the same terms, the figure for `O=C(Nc1ccc(O)cc1)c1nccc2ccccc12` is more than 10 µM.
Take `O=C(Nc1ccc(C(F)(F)F)cc1)C1NCCc2ccccc21` (stereo unspecified): the GI50 was 4.22 µM in [6]; 5.2 µM in [1]; 4.4 µM in assay [2]; 5.44 µM in [3]; 4.74 µM in [4]; 6.59 µM in assay [5].
Regarding `O=C(Nc1ccccc1C(F)(F)F)C1c2ccccc2CCN1C(=O)c1ccc(Cl)cc1` (stereo unspecified), the GI50 in assay [6] was more than 10 µM.
On to `O=C(Nc1ccccc1Cl)c1nccc2ccccc12`, for which the GI50 in [6] was more than 10 µM.
The same measure, in the same setting: the figure for `O=C(Nc1ccccc1O)C1NCCc2ccccc21` (stereo unspecified) is more than 10 µM.
Same read-out and setting: the value for `O=C(Nc1cccc(O)c1)c1nccc2ccccc12` was more than 10 µM.
Still for that read-out and setting: the figure for `COc1cccc(NC(=O)C2NCCc3ccccc32)c1` (stereo unspecified) is more than 10 µM.
